Laboratory results from PMC7073886, “Structure–Bioactivity Relationships of Lapatinib Derived Analogs against Schistosoma mansoni” (ACS Medicinal Chemistry Letters, 2020).
Values after ≈ are worked out from the molar mass of the structure shown. Where two headings read alike, the source gives them in different places.

Legend:
[1] = Aqueous pH 7.4 solubility; format: physicochemical; details: phosphate buffer pH 7.4, 25 °C, 20-24 h, read-out: aq sol (aqueous solubility)
[2] = Log D7.4 shake-flask octanol-water; format: physicochemical; details: pH 7.4
adult S. mansoni = assay: Phenotypic screen of adult S. mansoni worms, severity scores and descriptors; format: cell-based, Schistosoma mansoni; details: for Descriptors (10 µM) 1 h / Severity Scores (10 μM) 1 h / Descriptors (10 µM) 5 h / Severity Scores (10 μM) 5 h / Descriptors (10 µM) 24 h / Severity Scores (10 μM) 24 h / Descriptors (10 µM) 48 h / Severity Scores (10 μM) 48 h: adult S. mansoni; for Descriptors (10 µM) 1 h / Descriptors (10 µM) 5 h / Descriptors (10 µM) 24 h / Descriptors (10 µM) 48 h: phenotypic descriptors; for Severity Scores (10 μM) 1 h / Severity Scores (10 μM) 5 h / Severity Scores (10 μM) 24 h / Severity Scores (10 μM) 48 h: scale 0 (no activity) to 4 (maximal activity); for bioactivity against adult S. mansoni: adult schistosomes; for Severity Scores (10 μM) 1 h / Severity Scores (10 μM) 5 h / Severity Scores (10 μM) 24 h / Severity Scores (10 μM) 48 h / bioactivity against adult S. mansoni: 10 μM
Outline: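 Adult S. mansoni (NMRI isolate, ≥42 days old) were co-incubated with compounds and changes in motility, density, shape and adherence recorded visually over time and concentration. Descriptors converted to severity scores from 0 (no activity) to 4 (maximal).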

HepG2 cells = assay: Drug toxicity to HepG2 cells (MTT); format: cell-based; details: for HepG2 TC50: HepG2 cells, 48 hours incubation, MTT
Rat hepatocyte Clint = format: in vitro ADME; details: rat hepatocytes, intrinsic clearance; for hepatocyte CLint: read-out: RH CLint
[3] = Human liver microsomal Clint; format: in vitro ADME; details: human liver microsomes, intrinsic clearance; for microsomal CLint: read-out: HLM Clint
[4] = Human plasma protein binding (equilibrium dialysis); format: in vitro ADME; details: for human PPB (plasma protein binding): 10 µM, 37 °C; for fraction unbound at 10 µM: pH 7.4, 37 °C, read-out: human PPB (plasma protein binding) (converted)
[5] = aqueous buffer, thermodynamic from solid

Row | Structure (SMILES) | solubility [1] [µM] | LogD 7.4 [2] | Descriptors (10 µM) 1 h (adult S. mansoni) | Severity Scores (10 μM) 1 h (adult S. mansoni) | Descriptors (10 µM) 5 h (adult S. mansoni) | Severity Scores (10 μM) 5 h (adult S. mansoni) | Descriptors (10 µM) 24 h (adult S. mansoni) | Severity Scores (10 μM) 24 h (adult S. mansoni) | Descriptors (10 µM) 48 h (adult S. mansoni) | Severity Scores (10 μM) 48 h (adult S. mansoni) | HepG2 TC50 (HepG2 cells) [µM] | RH CLint (Rat hepatocyte Clint) [µL/min/10^6 cells] | HLM Clint [3] [μL/min/mg protein] | human PPB (plasma protein binding) [4] [%] | other results
1 | O=S(=O)(c1ccc(-c2ccc3nccc(N[C@@H]4CCCC[C@H]4O)c3c2)cc1)N1CCOCC1 (relative stereo) [S3d] | 140 (≈ 65.5 µg/mL) | 2.4 | none | 0 | none | 0 | none | 0 | none | 0 | 32 | 30 | 43 | 72 | 
2 | Cc1cnc(Nc2ccnc3cc(-c4cnc(N5CCN(C)CC5)nc4)ccc23)cn1 [5a] |  |  |  | 1 |  | 4 |  | 4 |  | 4 |  |  |  |  | solubility [1, 5]: 13 µM (≈ 5.36 µg/mL); logD [2]: 3.6; bioactivity against adult S. mansoni (adult S. mansoni): severe phenotypic response after just 5 h; increase in toxicity against HepG2 cells compared with 3 (HepG2 cells; relative to 3): greater than 1.9 fold; hepatocyte CLint (Rat hepatocyte Clint): 150 µL/min/1e6 cells; microsomal CLint [3]: 240 µL/min/mg; fraction unbound at 10 µM [4]: 0.07
3 | CS(=O)(=O)N1CCN(c2ncc(-c3ccc4c(Nc5cnccn5)ccnc4c3)cn2)CC1 [S2a] | 0.06 (≈ 0.0278 µg/mL) | 3.1 | none | 0 | none | 0 | none | 0 | none | 0 | > 33 | 28 | 44 | 96 | 
4 | c1cnc(Nc2ccnc3cc(-c4cnc(N5CCOCC5)nc4)ccc23)cn1 [S2d] | 0.7 (≈ 0.27 µg/mL) | 3.7 | Shrunk, S | 2 |  | 1 | none | 0 | none | 0 | 39 | 93 | > 300 | 96 | 
5 | O=S(=O)(c1ccc(-c2ccc3nccc(Nc4ccncn4)c3c2)cc1)N1CCOCC1 [S3a] | 1.4 (≈ 0.627 µg/mL) | 3.3 | none | 0 | none | 0 | none | 0 | none | 0 | > 34 | 32 | 210 | 96 | 
6 | O=S(=O)(c1ccc(-c2ccc3nccc(Nc4ncccn4)c3c2)cc1)N1CCOCC1 [S3b] |  |  | S, on sides | 2 | S, on sides | 2 |  | 3 |  | 3 | > 34 |  |  |  | solubility [1, 5]: 34 µM (≈ 15.2 µg/mL); logD [2]: 3.7; bioactivity against adult S. mansoni (adult S. mansoni): moderate activity after 1 h; hepatocyte CLint (Rat hepatocyte Clint): 85 µL/min/1e6 cells; microsomal CLint [3]: 270 µL/min/mg; fraction unbound at 10 µM [4]: 0.01
7 | CN1CCC(Nc2ccnc3ccc(-c4ccc(S(=O)(=O)N5CCOCC5)cc4)cc23)CC1 [S3c] | 790 (≈ 369 µg/mL) |  | none | 0 | none | 0 | none | 0 | none | 0 | 26 | 3.7 | 23 | 58 | 
8 | O=S(=O)(c1ccc(-c2ccc3nccc(NCCN4CCCC4)c3c2)cc1)N1CCOCC1 [S3e] | 870 (≈ 406 µg/mL) | 2.2 | none | 0 | none | 0 |  | 1 |  | 3 | 9.2 | 10 | 28 | 73 | 
9 | O=S(=O)(c1ccc(-c2ccc3nccc(NC4CCOCC4)c3c2)cc1)N1CCOCC1 [S3f] | 7 (≈ 3.17 µg/mL) | 2.3 |  | 1 |  | 1 |  | 1 |  | 1 | 16 | 20 | 59 | 70 | 
10 | O=S(=O)(c1ccc(-c2ccc3nccc(NCC4CCOCC4)c3c2)cc1)N1CCOCC1 [S3g] | 38 (≈ 17.8 µg/mL) | 2.7 | none | 0 | none | 0 | none | 0 | none | 0 | 32 | 72 | 70 | 74 | 
11 | O=S(=O)(c1ccc(-c2ccc3nccc(NCCC4CCOCC4)c3c2)cc1)N1CCOCC1 [S3h] | 200 (≈ 96.3 µg/mL) | 2.8 | none | 0 | none | 0 | none | 0 | none | 0 | 21 | 100 | 110 | 82 | 
12 | CN1CCCN(c2ncc(-c3ccc4nccc(Nc5cnccn5)c4c3)cn2)CC1 [S3i] | 990 (≈ 408 µg/mL) | 2.5 | none | 0 | none | 0 | none | 0 |  |  | > 37 | 12 | 48 | 81 | 
13 | CN1CCCN(c2ncc(-c3ccc4nccc(Nc5ccncn5)c4c3)cn2)CC1 [S3j] | 910 (≈ 375 µg/mL) | 2.2 | none | 0 | none | 0 | none | 0 |  |  | > 37 | 19 | 87 | 61 | 
